# According to PubChem BioAssay AID2060602 (Molecular Pharmacology Branch, DTP, NCI, 2025):
# Tested on: 648629-189-R-J1-PDC complex spheroids viability
# Assay: Anticancer human tumor 648629-189-R-J1-PDC patient-derived bladder carcinoma cell line growth inhibition [CLK]
# Settings: for IC50: curve of first compound; for viability, T/C: stronger effect = lower value
# Summary of the method: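 Multi-cell-type spheroids combined patient-derived tumor cells with HUVEC endothelial cells and human mesenchymal stem cells. Paired agents were dosed in half-log steps down from about clinical Cmax, or from 10 microM where Cmax was unknown.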
# [1] = second compound 0.0316 µM, first compound 0.0316 µM
# [2] = second compound 0.0316 µM, first compound 0.1 µM
# [3] = second compound 0.0316 µM, first compound 0.316 µM
# [4] = second compound 0.0316 µM, first compound 1 µM
# [5] = second compound 0.0316 µM, first compound 3.16 µM
# [6] = second compound 0.0316 µM, first compound 10 µM
# [7] = second compound 0.1 µM, first compound 0.0316 µM
# [8] = second compound 0.1 µM, first compound 0.1 µM
# [9] = second compound 0.1 µM, first compound 0.316 µM
# [10] = second compound 0.1 µM, first compound 1 µM
# [11] = second compound 0.1 µM, first compound 3.16 µM
# [12] = second compound 0.1 µM, first compound 10 µM
# [13] = second compound 0.316 µM, first compound 0.0316 µM
# [14] = second compound 0.316 µM, first compound 0.1 µM
# [15] = second compound 0.316 µM, first compound 0.316 µM
# [16] = second compound 0.316 µM, first compound 1 µM
# [17] = second compound 0.316 µM, first compound 3.16 µM
# [18] = second compound 0.316 µM, first compound 10 µM
# [19] = second compound 1 µM, first compound 0.0316 µM
# [20] = second compound 1 µM, first compound 0.1 µM
# [21] = second compound 1 µM, first compound 0.316 µM
# [22] = second compound 1 µM, first compound 1 µM
# [23] = second compound 1 µM, first compound 3.16 µM
# [24] = second compound 1 µM, first compound 10 µM
# [25] = second compound 3.16 µM, first compound 0.0316 µM
# [26] = second compound 3.16 µM, first compound 0.1 µM
# [27] = second compound 3.16 µM, first compound 0.316 µM
# [28] = second compound 3.16 µM, first compound 1 µM
# [29] = second compound 3.16 µM, first compound 3.16 µM
# [30] = second compound 3.16 µM, first compound 10 µM
# [31] = second compound 10 µM, first compound 0.0316 µM
# [32] = second compound 10 µM, first compound 0.1 µM
# [33] = second compound 10 µM, first compound 0.316 µM
# [34] = second compound 10 µM, first compound 1 µM
# [35] = second compound 10 µM, first compound 3.16 µM
# [36] = second compound 10 µM, first compound 10 µM
# 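Wherever viability, T/C is given: drug exposure lasted seven days before viability readout; 100% = DMSO vehicle control wells.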
structure (smiles),measurement,setting,value
C#Cc1c(F)ccc2cc(O)cc(-c3ncc4c(N5CC6CCC(C5)N6)nc(OCC56CCCN5CC(F)C6)nc4c3F)c12 (stereo not given) + CNC(=O)c1ccc(Nc2nc(OC3CCCC3)c3c(-c4ccc5nc(C)oc5c4)c[nH]c3n2)c(OC)c1,IC50,second compound 0.0316 µM,> 10000 nM
same,IC50,second compound 0.1 µM,8430 nM
same,IC50,second compound 0.316 µM,< 31.6 nM
same,IC50,second compound 1 µM,< 31.6 nM
same,IC50,second compound 3.16 µM,< 31.6 nM
same,IC50,second compound 10 µM,< 31.6 nM
same,"viability, T/C",[1],120%
same,"viability, T/C",[2],88.4%
same,"viability, T/C",[3],108%
same,"viability, T/C",[4],105%
same,"viability, T/C",[5],100%
same,"viability, T/C",[6],91.4%
same,"viability, T/C",[7],83.2%
same,"viability, T/C",[8],76.9%
same,"viability, T/C",[9],84.1%
same,"viability, T/C",[10],79.4%
same,"viability, T/C",[11],61.8%
same,"viability, T/C",[12],48%
same,"viability, T/C",[13],28.1%
same,"viability, T/C",[14],25.4%
same,"viability, T/C",[15],25.1%
same,"viability, T/C",[16],23%
same,"viability, T/C",[17],19.3%
same,"viability, T/C",[18],22%
same,"viability, T/C",[19],18.7%
same,"viability, T/C",[20],20.2%
same,"viability, T/C",[21],15.5%
same,"viability, T/C",[22],18.6%
same,"viability, T/C",[23],18.2%
same,"viability, T/C",[24],19.4%
same,"viability, T/C",[25],17.2%
same,"viability, T/C",[26],17.6%
same,"viability, T/C",[27],15.4%
same,"viability, T/C",[28],16.9%
same,"viability, T/C",[29],17.6%
same,"viability, T/C",[30],17.9%
same,"viability, T/C",[31],20.1%
same,"viability, T/C",[32],18.5%
same,"viability, T/C",[33],18%
same,"viability, T/C",[34],17%
same,"viability, T/C",[35],21.5%
same,"viability, T/C",[36],16.6%
C=C(F)C(=O)N1CCN(c2nc(OCC3CCCN3C)nc3c2CCN(c2cccc4cccc(Cl)c24)C3)CC1CC#N (stereo not given) + CNC(=O)c1ccc(Nc2nc(OC3CCCC3)c3c(-c4ccc5nc(C)oc5c4)c[nH]c3n2)c(OC)c1,IC50,second compound 0.0316 µM,5950 nM
same,IC50,second compound 0.1 µM,3810 nM
same,IC50,second compound 0.316 µM,< 31.6 nM
same,IC50,second compound 1 µM,< 31.6 nM
same,IC50,second compound 3.16 µM,< 31.6 nM
same,IC50,second compound 10 µM,< 31.6 nM
same,"viability, T/C",[1],110%
same,"viability, T/C",[2],107%
same,"viability, T/C",[3],120%
same,"viability, T/C",[4],106%
same,"viability, T/C",[5],111%
same,"viability, T/C",[6],0.23%
same,"viability, T/C",[7],70.8%
same,"viability, T/C",[8],71.7%
same,"viability, T/C",[9],66.6%
same,"viability, T/C",[10],65%
same,"viability, T/C",[11],60.1%
same,"viability, T/C",[12],0.52%
same,"viability, T/C",[13],26%
same,"viability, T/C",[14],27.9%
same,"viability, T/C",[15],29%
same,"viability, T/C",[16],22.4%
same,"viability, T/C",[17],24.4%
same,"viability, T/C",[18],0.16%
same,"viability, T/C",[19],18.6%
same,"viability, T/C",[20],17.9%
same,"viability, T/C",[21],23%
same,"viability, T/C",[22],20.2%
same,"viability, T/C",[23],20.8%
same,"viability, T/C",[24],0.14%
same,"viability, T/C",[25],18.8%
same,"viability, T/C",[26],19.3%
same,"viability, T/C",[27],19.9%
same,"viability, T/C",[28],19.4%
same,"viability, T/C",[29],19.7%
same,"viability, T/C",[30],0.19%
same,"viability, T/C",[31],21.2%
same,"viability, T/C",[32],18.6%
same,"viability, T/C",[33],18.2%
same,"viability, T/C",[34],19.8%
same,"viability, T/C",[35],19.1%
same,"viability, T/C",[36],0.26%
CC(CO)NC(=O)c1cc(-c2ccc(Cl)cc2)nn(-c2cnn(C)c2)c1=O (stereo not given) + CNC(=O)c1ccc(Nc2nc(OC3CCCC3)c3c(-c4ccc5nc(C)oc5c4)c[nH]c3n2)c(OC)c1,IC50,second compound 0.0316 µM,> 10000 nM
same,IC50,second compound 0.1 µM,> 10000 nM
same,IC50,second compound 0.316 µM,< 31.6 nM
same,IC50,second compound 1 µM,< 31.6 nM
same,IC50,second compound 3.16 µM,< 31.6 nM
same,IC50,second compound 10 µM,< 31.6 nM
same,"viability, T/C",[1],99.5%
same,"viability, T/C",[2],92.6%
same,"viability, T/C",[3],117%
same,"viability, T/C",[4],104%
same,"viability, T/C",[5],88.9%
same,"viability, T/C",[6],88.5%
same,"viability, T/C",[7],90.9%
same,"viability, T/C",[8],87.7%
same,"viability, T/C",[9],90.3%
same,"viability, T/C",[10],76.9%
same,"viability, T/C",[11],90.9%
same,"viability, T/C",[12],82.8%
same,"viability, T/C",[13],31.1%
same,"viability, T/C",[14],28.2%
same,"viability, T/C",[15],29.3%
same,"viability, T/C",[16],30.2%
same,"viability, T/C",[17],26.8%
same,"viability, T/C",[18],21.7%
same,"viability, T/C",[19],16.6%
same,"viability, T/C",[20],19.7%
same,"viability, T/C",[21],18.5%
same,"viability, T/C",[22],18.8%
same,"viability, T/C",[23],22.5%
same,"viability, T/C",[24],18.8%
same,"viability, T/C",[25],18%
same,"viability, T/C",[26],21.2%
same,"viability, T/C",[27],16.1%
same,"viability, T/C",[28],23%
same,"viability, T/C",[29],20.8%
same,"viability, T/C",[30],17.9%
same,"viability, T/C",[31],18.7%
same,"viability, T/C",[32],20.2%
same,"viability, T/C",[33],19.5%
same,"viability, T/C",[34],21.6%
same,"viability, T/C",[35],19.2%
same,"viability, T/C",[36],19.3%
CC(Nc1ccc2c(c1)OCCn1cc(N3C(=O)OCC3C(F)F)nc1-2)C(N)=O (stereo not given) + CNC(=O)c1ccc(Nc2nc(OC3CCCC3)c3c(-c4ccc5nc(C)oc5c4)c[nH]c3n2)c(OC)c1,IC50,second compound 0.0316 µM,5870 nM
same,IC50,second compound 0.1 µM,9490 nM
same,IC50,second compound 0.316 µM,< 31.6 nM
same,IC50,second compound 1 µM,< 31.6 nM
same,IC50,second compound 3.16 µM,< 31.6 nM
same,IC50,second compound 10 µM,< 31.6 nM
same,"viability, T/C",[1],114%
same,"viability, T/C",[2],106%
same,"viability, T/C",[3],89.4%
same,"viability, T/C",[4],67.8%
same,"viability, T/C",[5],64.9%
same,"viability, T/C",[6],40.6%
same,"viability, T/C",[7],95.7%
same,"viability, T/C",[8],89.9%
same,"viability, T/C",[9],84.1%
same,"viability, T/C",[10],77.3%
same,"viability, T/C",[11],62.2%
same,"viability, T/C",[12],49.6%
same,"viability, T/C",[13],27.7%
same,"viability, T/C",[14],37.6%
same,"viability, T/C",[15],33.7%
same,"viability, T/C",[16],34%
same,"viability, T/C",[17],31.2%
same,"viability, T/C",[18],27.1%
same,"viability, T/C",[19],17%
same,"viability, T/C",[20],22.3%
same,"viability, T/C",[21],18.5%
same,"viability, T/C",[22],17.5%
same,"viability, T/C",[23],16.6%
same,"viability, T/C",[24],14.8%
same,"viability, T/C",[25],16.7%
same,"viability, T/C",[26],20.3%
same,"viability, T/C",[27],16.1%
same,"viability, T/C",[28],17.8%
same,"viability, T/C",[29],12.9%
same,"viability, T/C",[30],15.9%
same,"viability, T/C",[31],21.5%
same,"viability, T/C",[32],19.8%
same,"viability, T/C",[33],17.2%
same,"viability, T/C",[34],15%
same,"viability, T/C",[35],21.8%
same,"viability, T/C",[36],11.5%
COc1c(OCCCN2CCOCC2)ccc2c3n(c(=NC(=O)c4cnc(N)nc4)nc12)CCN3 + CNC(=O)c1ccc(Nc2nc(OC3CCCC3)c3c(-c4ccc5nc(C)oc5c4)c[nH]c3n2)c(OC)c1,IC50,second compound 0.0316 µM,92.8 nM
same,IC50,second compound 0.1 µM,93 nM
same,IC50,second compound 0.316 µM,< 3.16 nM
same,IC50,second compound 1 µM,< 3.16 nM
same,IC50,second compound 3.16 µM,< 3.16 nM
same,IC50,second compound 10 µM,< 3.16 nM
same,"viability, T/C","second compound 0.0316 µM, first compound 0.00316 µM",94.5%
same,"viability, T/C","second compound 0.0316 µM, first compound 0.01 µM",92.6%
same,"viability, T/C",[1],88.2%
same,"viability, T/C",[2],46.9%
same,"viability, T/C",[3],15.3%
same,"viability, T/C",[4],8.61%
same,"viability, T/C","second compound 0.1 µM, first compound 0.00316 µM",101%
same,"viability, T/C","second compound 0.1 µM, first compound 0.01 µM",105%
same,"viability, T/C",[7],80.6%
same,"viability, T/C",[8],49.1%
same,"viability, T/C",[9],17.6%
same,"viability, T/C",[10],8.37%
same,"viability, T/C","second compound 0.316 µM, first compound 0.00316 µM",30.4%
same,"viability, T/C","second compound 0.316 µM, first compound 0.01 µM",31.4%
same,"viability, T/C",[13],34.1%
same,"viability, T/C",[14],31.3%
same,"viability, T/C",[15],17.9%
same,"viability, T/C",[16],8.81%
same,"viability, T/C","second compound 1 µM, first compound 0.00316 µM",19.9%
same,"viability, T/C","second compound 1 µM, first compound 0.01 µM",19.9%
same,"viability, T/C",[19],16.1%
same,"viability, T/C",[20],14.5%
same,"viability, T/C",[21],11.1%
same,"viability, T/C",[22],5.6%
same,"viability, T/C","second compound 3.16 µM, first compound 0.00316 µM",16.3%
same,"viability, T/C","second compound 3.16 µM, first compound 0.01 µM",15.8%
same,"viability, T/C",[25],16.1%
same,"viability, T/C",[26],11.2%
same,"viability, T/C",[27],7.88%
same,"viability, T/C",[28],4.37%
same,"viability, T/C","second compound 10 µM, first compound 0.00316 µM",19.9%
same,"viability, T/C","second compound 10 µM, first compound 0.01 µM",18.3%
same,"viability, T/C",[31],16.9%
same,"viability, T/C",[32],13.4%
same,"viability, T/C",[33],9.26%
same,"viability, T/C",[34],5.85%
